Assay results as given in ChEMBL document CHEMBL6178021, “Optimization of Tambjamines Active against Multiple Stages of Malaria Parasites” (J Med Chem, 2025).
pIC50: −log10 of the molar value. In brackets after ≈: the same amount, converted by molar mass.

Columns and labels:
[1] = test system: Plasmodium falciparum; test: Antiplasmodial activity against asexual blood-stage Plasmodium falciparum Tm90-C2B using 2% haematocrit and 0.2% parasitemia assessed as reduction in fluorescence measured after 72 hrs by Malaria SYBR Green I-based Fluorescence (MSF) assay; type: functional, organism-based
[2] = Metabolic stability in human liver microsomes assessed as half life measured up to 60 mins by LC/MS analysis; type: ADME, Microsome
[3] = Metabolic stability in mouse liver microsomes assessed as half life measured up to 60 mins by LC/MS analysis; type: ADME, Microsome
[4] = Solubility of the compound in potassium phosphate buffer at pH 7.4 by UV-vis spectroscopy; details: buffer
[5] = test system: MDR1 (human); test: Apparent permeability across apical to basolateral side in MDCK transfected with human MDR1 cells incubated for 1 hr by LC-MS analysis; details: dog, MDCK-MDR1
[6] = test system: MDR1 (human); test: Apparent permeability across basolateral to apical side in MDCK transfected with human MDR1 cells incubated for 1 hr by LC-MS analysis; details: dog, MDCK-MDR1
[7] = test system: MDR1 (human); test: Efflux ratio, ratio of apparent permeability across apical to basolateral side over basolateral to apical side in MDCK transfected with human MDR1 cells incubated for 1 hr by LC-MS analysis; details: dog
[8] = in vitro; details: human, liver microsomes
[9] = in vitro; details: mouse, liver microsomes
[10] = test system: Plasmodium falciparum; test: microbe, parasite or virus in culture; details: D6, 72 h
Description: Antiplasmodial activity against asexual blood-stage Plasmodium falciparum D6 using 2% haematocrit and 0.2% parasitemia assessed as reduction in fluorescence measured after 72 hrs by Malaria SYBR Green I-based Fluorescence (MSF) assay

[11] = test system: Plasmodium falciparum; test: microbe, parasite or virus in culture; details: Dd2, 72 h
Description: Antiplasmodial activity against asexual blood-stage Plasmodium falciparum Dd2 using 2% haematocrit and 0.2% parasitemia assessed as reduction in fluorescence measured after 72 hrs by Malaria SYBR Green I-based Fluorescence (MSF) assay

[12] = test system: HepG2; test: Cytotoxicity against human HepG2 cells assessed as cell viability measured after 48 hrs by MTT assay; type: toxicity, cell-based; details: hepg2
[13] = test system: Plasmodium yoelii; test: Antimalarial activity against erythrocytic Plasmodium yoelii MRA-428 infected in CF1 mouse assessed as reduction in parasitemia at 10 mg/kg, po once daily for 4 days measured on day 5; type: functional; set-up: scale not given: the % may be the effect or the level left; details: time 4 day
[14] = test system: Plasmodium yoelii; test: Antimalarial activity against erythrocytic Plasmodium yoelii MRA-428 infected in CF1 mouse assessed as reduction in parasitemia at 25 mg/kg, po once daily for 4 days measured on day 5; type: functional; set-up: scale not given: the % may be the effect or the level left; details: time 4 day
[15] = in vitro; details: human
Description: Selectivity index, ratio of IC50 for cytotoxicity against human HepG2 cells to IC50 for antiplasmodial activity against asexual blood-stage Plasmodium falciparum D6

[16] = test system: Plasmodium yoelii; test: Antimalarial activity against erythrocytic Plasmodium yoelii MRA-428 infected in CF1 mouse assessed as cured mouse at 50 mg/kg, po once daily for 4 days measured on day 28 day; type: functional, organism-based; details: time 4.0 day
[17] = test system: Plasmodium yoelii; test: Antimalarial activity against erythrocytic Plasmodium yoelii MRA-428 infected in CF1 mouse assessed as reduction in parasitemia at 50 mg/kg, po once daily for 4 days measured on day 5; type: functional; set-up: scale not given: the % may be the effect or the level left; details: time 4 day
[18] = test system: Plasmodium yoelii; test: Antimalarial activity against erythrocytic Plasmodium yoelii MRA-428 infected in CF1 mouse assessed as cured mouse at 25 mg/kg, po once daily for 4 days measured on day 28 day; type: functional, organism-based; details: time 4.0 day

Structure (SMILES)	pIC50 [1]	half-life [2]	half-life [3]	solubility [4]	Papp A→B at 1 h [5]	Papp B→A at 1 h [6]	efflux ratio at 1 h [7]	microsomal CLint at 1 h [8]	microsomal CLint at 1 h [9]	pIC50 [10]	pIC50 [11]	pIC50 [12]	Activity [13]	Activity [14]	selectivity ratio [15]	Activity [16]	Activity [17]	Activity [18]
CCC1=C(CC)/C(=C/NC2CCCCC2)N=C1c1ccc(Cl)[nH]1	6.69	> 60 min	> 60 min	22.6 µM (≈ 7.5 µg/mL)	0.71 ×10⁻⁶ cm/s	0.12 ×10⁻⁶ cm/s	0.17	8.01 µL/min/mg	0.67 µL/min/mg	6.41	6.63							
COC1=C(OC)/C(=C/NC2CCCCCC2)N=C1c1ccc[nH]1	7.41	16.1 min	14.6 min	199 µM (≈ 62.8 µg/mL)	1.02 ×10⁻⁶ cm/s	2.78 ×10⁻⁶ cm/s	2.7	85.9 µL/min/mg	94.7 µL/min/mg	7.24	7.45	4.78	8.81%	81.2%	290			
CCC1=C(CC)/C(=C/NC23C[C@H]4C[C@@H](C2)C[C@@H](C3)C4)N=C1c1ccc(-c2ccccc2)[nH]1	8.74	46.9 min	15.1 min	< 3.125 µM	2.85 ×10⁻⁶ cm/s	0.002 ×10⁻⁶ cm/s		29.5 µL/min/mg	91.8 µL/min/mg	8.59	8.88	5.69	0%		800			
CCC1=C(CC)/C(=C/NC23C[C@H]4C[C@@H](C2)C[C@@H](C3)C4)N=C1c1ccccc1O	6.51									6.89	6.73	4.92			93			
CCC1=C(CC)/C(=C/NC2CCCCCC2)N=C1c1ccc(Cl)[nH]1	6.74	> 60 min	> 60 min	14.4 µM (≈ 4.98 µg/mL)	0.19 ×10⁻⁶ cm/s	0.076 ×10⁻⁶ cm/s	0.4	22.2 µL/min/mg	8.33 µL/min/mg	6.34	6.60							
CCC1=C(CC)/C(=C/N[C@H]2CC[C@H](C(=O)OC)CC2)N=C1c1ccc[nH]1	6.39	14.4 min	12.6 min	121 µM (≈ 43 µg/mL)	0.088 ×10⁻⁶ cm/s	0.74 ×10⁻⁶ cm/s	8.4	96.4 µL/min/mg	110 µL/min/mg	6.44	6.52					Not active; None Of The Mouse Cured Out Of Four Tested		
CCC1=C(CC)/C(=C/NC2CCCCC2)N=C1c1cc2cc(Cl)ccc2[nH]1	6.33	24.5 min	> 60 min	30.7 µM (≈ 11.7 µg/mL)	0.002 ×10⁻⁶ cm/s	0.001 ×10⁻⁶ cm/s	0.59	56.5 µL/min/mg	19.7 µL/min/mg	6.27	6.33							
CCC1=C(CC)/C(=C/NC23C[C@H]4C[C@@H](C2)C[C@@H](C3)C4)N=C1c1cc2cc(OC)ccc2[nH]1	7.25	> 60 min	> 60 min	24.4 µM (≈ 10.5 µg/mL)	0.002 ×10⁻⁶ cm/s	0.001 ×10⁻⁶ cm/s	0.59	6.19 µL/min/mg	9.13 µL/min/mg	7.38	7.34	5.28	87.2%	93.8%	125			
COC(=O)[C@H]1CC[C@H](N/C=C2\N=C(c3ccc[nH]3)C3=C2CCCC3)CC1	6.77	16.7 min	10.3 min	383 µM (≈ 135 µg/mL)	0.23 ×10⁻⁶ cm/s	1.1 ×10⁻⁶ cm/s	4.8	82.9 µL/min/mg	134 µL/min/mg		6.80	4.70			334		100%	
C(/NC12C[C@H]3C[C@@H](C1)C[C@@H](C2)C3)=C1/N=C(c2ccc[nH]2)C2=C1OCCO2	8.41	11.7 min	27.9 min	114 µM (≈ 40.1 µg/mL)	0.14 ×10⁻⁶ cm/s	0.85 ×10⁻⁶ cm/s	6.1	118 µL/min/mg	49.8 µL/min/mg		8.08	5.42	0%		444			
CCC1=C(CC)/C(=C/NC2CCCCCC2)N=C1c1ccc(Br)[nH]1	6.89	> 60 min	58.5 min	< 3.125 µM	0.004 ×10⁻⁶ cm/s	0.001 ×10⁻⁶ cm/s	0.26	13 µL/min/mg	23.7 µL/min/mg	6.55	6.65							
CCC1=C(CC)/C(=C/NC23C[C@H]4C[C@@H](C2)C[C@@H](C3)C4)N=C1c1ccc(Cc2ccc(OC)cc2)[nH]1	8.40	> 60 min	> 60 min	26.2 µM (≈ 12.3 µg/mL)	0.04 ×10⁻⁶ cm/s	0.008 ×10⁻⁶ cm/s	0.21	11.7 µL/min/mg	4.57 µL/min/mg	8.68	9.06	5.79	0%		775			
CCc1ccc(C2=N/C(=C\NC3CCCCC3)C3=C2OCCO3)[nH]1	8.87	51.3 min	16.7 min	131 µM (≈ 42.9 µg/mL)	0.25 ×10⁻⁶ cm/s	1.3 ×10⁻⁶ cm/s	5.2	27 µL/min/mg	82.8 µL/min/mg	8.20	7.92	5.71	0%	19.4%	308			
CCC1=C(CC)/C(=C/NC23C[C@H]4C[C@@H](C2)C[C@@H](C3)C4)N=C1c1ccc(-c2ccc(OC)cc2)[nH]1	8.10	12.2 min	12.1 min	12.4 µM (≈ 5.65 µg/mL)	0.03 ×10⁻⁶ cm/s	0.016 ×10⁻⁶ cm/s	0.53	114 µL/min/mg	110 µL/min/mg	8.05	8.27	6.00	11.5%		113			
COc1ccc(C2=C(c3ccc(OC)cc3)/C(=C/NC34C[C@H]5C[C@@H](C3)C[C@@H](C4)C5)N=C2c2ccc[nH]2)cc1	7.82	52.1 min	> 60 min	10.7 µM (≈ 5.41 µg/mL)	0.059 ×10⁻⁶ cm/s	0.005 ×10⁻⁶ cm/s	0.079	26.6 µL/min/mg	12.2 µL/min/mg		7.82	5.10			496			
CCC1=C(CC)/C(=C/NC23C[C@H]4C[C@@H](C2)C[C@@H](C3)C4)N=C1c1ccc(Cl)[nH]1	8.14	> 60 min	> 60 min	40 µM (≈ 15.4 µg/mL)	0.34 ×10⁻⁶ cm/s	0.074 ×10⁻⁶ cm/s	0.22			7.85	8.05	5.35	23.2%	90.7%	315			
C[C@H]1CC[C@H](N/C=C2\N=C(c3ccc[nH]3)C3=C2CCCC3)CC1	7.88	25.6 min	33 min	185 µM (≈ 57.2 µg/mL)	0.27 ×10⁻⁶ cm/s	0.23 ×10⁻⁶ cm/s	0.85	54.1 µL/min/mg	41.9 µL/min/mg	8.23	8.63	5.11		41.2%	1320		100%	
CCC1=C(CC)/C(=C/NC2CCCCCC2)N=C1c1ccc(CC)[nH]1	8.34	> 60 min	> 60 min	30.1 µM (≈ 10.2 µg/mL)	0.03 ×10⁻⁶ cm/s	0.012 ×10⁻⁶ cm/s		13.3 µL/min/mg	5.29 µL/min/mg	8.14	8.49	5.44	37.6%	100%		Not active; None Of The Mouse Cured Out Of Four Tested	100%	Not active; None Of The Mouse Cured Out Of Four Tested
